According to US20250161238A1, “NMDAR Antagonists Prevent Ageing and Aging-Associated Conditions and Diseases Through Increasing 20S Proteasome Activity” (priority 2022, published 2025):

How the values were obtained:
[1] = tested on: Ub-YFP; assay: Ub-YFP degredation in Hep3B cells; type: cell-based, human
Experimental: This finding was supported by the following experiments; First, a model was developed to find inhibitor or inhibitors for the ubiquitin dependent degredation in the Hep3B cell line. For this purpose Hep3B cell expressing Ub-YFP genome were prepared. Ub-YFP is a system which was used to detect the ubiquitin dependent proteasome activity (26S). It is also known that Ub-YFP is not affected by the ubiquitin-independent protesome system. In further experiments, we tested molecules which are involved in different parts of the ubiquitination processes including PYR41 (Ubiquitin-activating enzyme (E1) inhibitor), NCC697923 (UBE2N E2 ubiquitin-conjugating enzyme inhibitor), SMER3 (ubiquitin ligase E3 inhibitor), SZL-P1-411 (Skp2 E3 ligase inhibitor), SKPIN C1 (Skp2 E3 ligase inhibitor), P005091 (USP7 inhibitor), Vialin A (USP4 and USP5 inhibitor), Spautin A (USP10 and USP13 inhibitor), ML 323 (USP1-UAF1 inhibitor), IU1 (USP14 inhibitor), and Mg132 (protesome inhibitor) for the inhibition of Ub-YFP degredation. […] MG132 was used as the inhibitor of the protesome activity (FIG. 12A). In the next experiment YFP protein amount was investigated in the presence of ketamin, Pyr41, and ketamin and Pyr41 together by western blot in Hep3B cell.
The Ub-R-YFP open-reading frame was obtained from Ub-R-YFP was a gift from Nico Dantuma (Addgene plasmid #11948). Ub-R-YFP sequence was obtained from the original vector by cutting the plasmid with NheI and NotI enzymes (Thermo Scientific), blunt ended and was cloned into pBSK-clo2D which is cut by EcoRV restriction enzyme (SibEnzyme, E059). Ub-R-YFP was obtained from the pBSK-clo2D vector by cutting with BamHI. pLV-EF1a-IRES-Puro (85132-Addgene) vector was cut by BamHI restriction enzyme and dephospharylated and ligated with Ub-R-YFP. After the orientation construct was determined, pLV-EF1a-IRES-Puro-Ub-R-YFP was reproduced in large volumes using DH5a E. Coli.
Hek293T cells were transfected with the pLV-EF1a-IRES-Puro-Ub-R-YFP and helper vectors psPAX2 and pMD2.G using Calcium Phosphate Mammalian Transfection Kit (631312-Takara bio). After 48 h supernatants containing Ub-R-YFP lentivirus were collected and target cells were infected under the presence of […] polybrene. After 24 hours, the media of the cells were replaced with media containing […] puromycin for 6 days. Then living cells were combined in a pool. Infected clones were maintained in the presence of 250 ng/ml puromycin.

[2] = tested on: melanin and lipofuscin; assay: Melanin and lipofuscin staining of mouse tissues; type: in vivo; settings: mice at 22 months
Text: Whole frozen tissues were sectioned with a microtome and fixed in 4% paraformaldehyde, Tissues were washed in PBS and the individual staining methods used in accordance with the manufacturer's recommendations. Total pixels from fluorescence in the images were quantified using Adobe Photoshop software CS2 (Adobe Systems), and normalized to a nuclear stain.

[3] = tested on: hippocampal slices; settings: 6-10 uM; cited from earlier work
[4] = tested on: oxidized proteins; assay: Oxidation status of proteins in mouse tissues (DNP-hydrazone western blot); type: in vivo; settings: 24 month old mice
[5] = tested on: mice; assay: Open Field Maze (OFM) tests in aged mice; type: in vivo
Text: Another test showing locomotor activity in mice is Open Field Maze (OFM). The OFM is one of the most widely used platforms which allow the researcher to measure behaviors ranging from overall locomotor activity to anxiety-related emotional behaviors. The first and most important specific parameter to measure in the OFM is total ambulatory distance.
The experimental protocols were approved by the Ethics Committee of Ankara University, Faculty of Medicine, Medical Sciences Experimental Research and Application Center (Date: Dec. 11, 2019 and Decision number: 2019-22-189). Adult (12-mounts-old) C57BL/6 mice (5 for each group) were used. The mice were housed at the Experimental Animal Research Laboratory of Ankara University Faculty of Medicine. Food and water were given without restriction. The ambient temperature was kept at 21±2° C., and locomotor activity tests were performed at this temperature. The animals were housed in a room with a 12-hour light/dark cycle. The procedures in the study were performed in accordance with the Ankara University Animal Care Committee according to international guidelines. Memantine (Sigma-Aldrich) was administered orally at 3 mg/Kg/per day with drinking water of one-year-old mice. Tests related to locomotor activities of the mice were recorded and available.
Open Field Test described firstly Hall for “emotionality” (Hall, 1934). Open Field test is used for anxiety-like behavior (ALB) and locomotor activity. We conducted the test in a hypethral box, which was made of 62×68 cm blueboard. The base of the box was divided into 20 equal rectangles. Animals had placed in the central region of Open Field Test. The first 5 min of the record was used for the analysis of behavioral parameters such as total distance traveled (horizontal locomotor activity), total rearing number (vertical locomotor activity), central zone time (ALB), Central zone Latency (the time of first return to the central region: ALB), central zone entrance (ALB), unsupported rearing (vertical locomotor activity without touch test wall and exploratory behavior, sensitive for ALB), central escape latency (first escape time from central zone: ALB) (Çalιşkan et al, 2019, Çalιşkan et al, 2020).

[6] = tested on: human mesenchymal stem cells; assay: MTT test of mesenchymal stem cells; type: cell-based; settings: day 21
[7] = tested on: C. elegans; assay: NADP+ and NADPH+ amount in C. elegans; type: in vivo; settings: 19th day
Text: Therefore, the amount of NADP+ and NADPH+ were investigated in C. elagans.

| SMILES | Ub-YFP degredation ([1]; Hep3B expressing Ub-YFP) | YFP protein amount ([1]; Hep3B, western blot) | amount of lipofuscin (liver) [2] | amount of melanin (skin) [2] | LTP in hippocampal slices [3] | oxidation of protein from lung tissue [4] | Oxidized proteins in liver, brain, kidney, skin and pancreas ([4]; memantin for 12 months) | Central zone time ([5]; 5-minute movements) | Central latency time ([5]; P 0.07) | Central zone entrance ([5]; P 0.08) | Central escape latency ([5]; P 0.4) | total ambulatory distance ([5]; five minute recordings) | Peripheral zone time ([5]; mouse, in vivo) | total rearing activity ([5]; mouse, in vivo) | lifespan of human mesenchymal stem cells (MTT test) [6] | NADP+ compared to C. elegans without treatment [7] |
| --- | --- | --- | --- | --- | --- | --- | --- | --- | --- | --- | --- | --- | --- | --- | --- | --- |
| CNC1(c2ccccc2Cl)CCCCC1=O (stereo not shown) [ketamin, 2-(2-chlorophenyl)-2-(methylamino)-cyclohexanone] | no effect | did not decrease |  |  |  |  |  |  |  |  |  |  |  |  |  |  |
| CC12CC3CC(C)(C1)CC(N)(C3)C2 [memantine, 3,5-dimethyladamantan-1-amine] |  |  | statistically decreased | statistically decreased | do not attenuate | No significant change | reduced | 4 times | differed at least twice | differed at least twice | differed at least twice | nearly two times more | mice not receiving memantine remained in the peripheral regions more | twice as much rearing activity | increase the lifespan | 2 folds |
